In PubChem BioAssay AID1963825 (Molecular Pharmacology Branch, DTP, NCI, 2024):

Assay: Anticancer human tumor 997537-175-T-J1-PDC patient-derived colon adenocarcinoma cell line growth inhibition [POLQ]
Details: 997537-175-T-J1-PDC complex spheroid viability, combination with POLQ inhibitors; for IC50: curve of first compound; for viability, T/C: stronger effect = lower value
Summary of the method: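 Growth inhibition in 3D: complex spheroids (tumor PDC, HUVEC, MSC) treated with POLQ inhibitor combinations; where Cmax unknown, highest tested concentration 10 microM, except SN-38 at 1 microM.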

[1] = second compound 0.0316 µM, first compound 0.0316 µM
[2] = second compound 0.0316 µM, first compound 0.1 µM
[3] = second compound 0.0316 µM, first compound 0.316 µM
[4] = second compound 0.0316 µM, first compound 1 µM
[5] = second compound 0.1 µM, first compound 0.0316 µM
[6] = second compound 0.1 µM, first compound 0.1 µM
[7] = second compound 0.1 µM, first compound 0.316 µM
[8] = second compound 0.1 µM, first compound 1 µM
[9] = second compound 0.316 µM, first compound 0.0316 µM
[10] = second compound 0.316 µM, first compound 0.1 µM
[11] = second compound 0.316 µM, first compound 0.316 µM
[12] = second compound 0.316 µM, first compound 1 µM
[13] = second compound 1 µM, first compound 0.0316 µM
[14] = second compound 1 µM, first compound 0.1 µM
[15] = second compound 1 µM, first compound 0.316 µM
[16] = second compound 1 µM, first compound 1 µM
[17] = second compound 3.16 µM, first compound 0.0316 µM
[18] = second compound 3.16 µM, first compound 0.1 µM
[19] = second compound 3.16 µM, first compound 0.316 µM
[20] = second compound 3.16 µM, first compound 1 µM
[21] = second compound 10 µM, first compound 0.0316 µM
[22] = second compound 10 µM, first compound 0.1 µM
[23] = second compound 10 µM, first compound 0.316 µM
[24] = second compound 10 µM, first compound 1 µM
[25] = second compound 0.0316 µM, first compound 3.16 µM
[26] = second compound 0.0316 µM, first compound 10 µM
[27] = second compound 0.1 µM, first compound 3.16 µM
[28] = second compound 0.1 µM, first compound 10 µM
[29] = second compound 0.316 µM, first compound 3.16 µM
[30] = second compound 0.316 µM, first compound 10 µM
[31] = second compound 1 µM, first compound 3.16 µM
[32] = second compound 1 µM, first compound 10 µM
[33] = second compound 3.16 µM, first compound 3.16 µM
[34] = second compound 3.16 µM, first compound 10 µM
[35] = second compound 10 µM, first compound 3.16 µM
[36] = second compound 10 µM, first compound 10 µM
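Further: luminescence signal used as a surrogate for viable cells; spheroids exposed to drugs for seven days before readout.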

COc1cccc(OCCCN)c1-c1cc(Nc2cnc(C#N)cn2)n[nH]1 + Cc1cccc(N(C)C(=O)C2C(O)CCN2c2nc(C)cc(C(F)(F)F)c2C#N)c1
IC50 (second compound 0.0316 µM): 0.131 µM
IC50 (second compound 0.1 µM): 0.139 µM
IC50 (second compound 0.316 µM): 0.125 µM
IC50 (second compound 1 µM): 0.039 µM
IC50 (second compound 3.16 µM): 0.0237 µM
IC50 (second compound 10 µM): 0.135 µM
viability, T/C (second compound 0.0316 µM, first compound 0.00316 µM): 92.7%
viability, T/C (second compound 0.0316 µM, first compound 0.01 µM): 97.7%
viability, T/C [1]: 79%
viability, T/C [2]: 60.8%
viability, T/C [3]: 22.5%
viability, T/C [4]: 27.9%
viability, T/C (second compound 0.1 µM, first compound 0.00316 µM): 111%
viability, T/C (second compound 0.1 µM, first compound 0.01 µM): 107%
viability, T/C [5]: 50.1%
viability, T/C [6]: 73%
viability, T/C [7]: 32.8%
viability, T/C [8]: 31.2%
viability, T/C (second compound 0.316 µM, first compound 0.00316 µM): 100%
viability, T/C (second compound 0.316 µM, first compound 0.01 µM): 79.8%
viability, T/C [9]: 70.1%
viability, T/C [10]: 45.3%
viability, T/C [11]: 48.2%
viability, T/C [12]: 20%
viability, T/C (second compound 1 µM, first compound 0.00316 µM): 101%
viability, T/C (second compound 1 µM, first compound 0.01 µM): 79.1%
viability, T/C [13]: 59.6%
viability, T/C [14]: 25.9%
viability, T/C [15]: 29.5%
viability, T/C [16]: 27.4%
viability, T/C (second compound 3.16 µM, first compound 0.00316 µM): 86.6%
viability, T/C (second compound 3.16 µM, first compound 0.01 µM): 85.4%
viability, T/C [17]: 38%
viability, T/C [18]: 20.6%
viability, T/C [19]: 18.4%
viability, T/C [20]: 36%
viability, T/C (second compound 10 µM, first compound 0.00316 µM): 86.8%
viability, T/C (second compound 10 µM, first compound 0.01 µM): 73.6%
viability, T/C [21]: 62.9%
viability, T/C [22]: 45.8%
viability, T/C [23]: 53.1%
viability, T/C [24]: 30.1%

CNCc1ccc(-c2[nH]c3cc(F)cc4c3c2CCNC4=O)cc1 + Cc1cccc(N(C)C(=O)C2C(O)CCN2c2nc(C)cc(C(F)(F)F)c2C#N)c1
IC50 (second compound 0.0316 µM): > 10 µM
IC50 (second compound 0.1 µM): > 10 µM
IC50 (second compound 0.316 µM): > 10 µM
IC50 (second compound 1 µM): > 10 µM
IC50 (second compound 3.16 µM): > 10 µM
IC50 (second compound 10 µM): > 10 µM
viability, T/C [1]: 94.7%
viability, T/C [2]: 114%
viability, T/C [3]: 81.6%
viability, T/C [4]: 87.9%
viability, T/C [25]: 109%
viability, T/C [26]: 85.3%
viability, T/C [5]: 119%
viability, T/C [6]: 94.2%
viability, T/C [7]: 103%
viability, T/C [8]: 104%
viability, T/C [27]: 101%
viability, T/C [28]: 121%
viability, T/C [9]: 105%
viability, T/C [10]: 103%
viability, T/C [11]: 99.5%
viability, T/C [12]: 102%
viability, T/C [29]: 119%
viability, T/C [30]: 89.5%
viability, T/C [13]: 92.4%
viability, T/C [14]: 113%
viability, T/C [15]: 99%
viability, T/C [16]: 86.3%
viability, T/C [31]: 99.8%
viability, T/C [32]: 90.2%
viability, T/C [17]: 116%
viability, T/C [18]: 84.8%
viability, T/C [19]: 99.8%
viability, T/C [20]: 117%
viability, T/C [33]: 82.1%
viability, T/C [34]: 96.9%
viability, T/C [21]: 103%
viability, T/C [22]: 112%
viability, T/C [23]: 94.2%
viability, T/C [24]: 101%
viability, T/C [35]: 95.5%
viability, T/C [36]: 89.4%

CCc1cc2c(N3CCc4c(cc(Cn5ccnc5)cc4-c4cn(C)nc4C(F)(F)F)C3=O)cc(C)nc2c(OC)n1 + Nc1ccc(C#CCN(C(=O)Cc2ncc(C(F)(F)F)cc2C(F)(F)F)c2ccc(F)cc2)nn1
IC50 (second compound 0.0316 µM): > 10 µM
IC50 (second compound 0.1 µM): > 10 µM
IC50 (second compound 0.316 µM): > 10 µM
IC50 (second compound 1 µM): > 10 µM
IC50 (second compound 3.16 µM): > 10 µM
IC50 (second compound 10 µM): > 10 µM
viability, T/C [1]: 96%
viability, T/C [2]: 98.5%
viability, T/C [3]: 98.1%
viability, T/C [4]: 86.8%
viability, T/C [25]: 76%
viability, T/C [26]: 67.4%
viability, T/C [5]: 88.7%
viability, T/C [6]: 97%
viability, T/C [7]: 77.7%
viability, T/C [8]: 79.6%
viability, T/C [27]: 68.3%
viability, T/C [28]: 74.9%
viability, T/C [9]: 93.4%
viability, T/C [10]: 87.3%
viability, T/C [11]: 99.5%
viability, T/C [12]: 96.5%
viability, T/C [29]: 84%
viability, T/C [30]: 77.5%
viability, T/C [13]: 96.4%
viability, T/C [14]: 103%
viability, T/C [15]: 84%
viability, T/C [16]: 80.9%
viability, T/C [31]: 78.9%
viability, T/C [32]: 51%
viability, T/C [17]: 102%
viability, T/C [18]: 103%
viability, T/C [19]: 99.7%
viability, T/C [20]: 89.7%
viability, T/C [33]: 65.4%
viability, T/C [34]: 73.7%
viability, T/C [21]: 105%
viability, T/C [22]: 104%
viability, T/C [23]: 87.6%
viability, T/C [24]: 96.8%
viability, T/C [35]: 71.8%
viability, T/C [36]: 76.7%

CCCS(=O)(=O)Nc1ccc(F)c(C(=O)c2c[nH]c3ncc(-c4ccc(Cl)cc4)cc23)c1F + Nc1ccc(C#CCN(C(=O)Cc2ncc(C(F)(F)F)cc2C(F)(F)F)c2ccc(F)cc2)nn1
IC50 (second compound 0.0316 µM): 5.51 µM
IC50 (second compound 0.1 µM): 7.31 µM
IC50 (second compound 0.316 µM): 5.97 µM
IC50 (second compound 1 µM): 5.25 µM
IC50 (second compound 3.16 µM): 6 µM
IC50 (second compound 10 µM): 6.76 µM
viability, T/C [1]: 81.8%
viability, T/C [2]: 88.9%
viability, T/C [3]: 80.7%
viability, T/C [4]: 70.3%
viability, T/C [25]: 74.2%
viability, T/C [26]: 27.2%
viability, T/C [5]: 101%
viability, T/C [6]: 86.5%
viability, T/C [7]: 80.9%
viability, T/C [8]: 71.3%
viability, T/C [27]: 82.8%
viability, T/C [28]: 37.9%
viability, T/C [9]: 90.3%
viability, T/C [10]: 88.3%
viability, T/C [11]: 78.4%
viability, T/C [12]: 71.9%
viability, T/C [29]: 79.3%
viability, T/C [30]: 26.4%
viability, T/C [13]: 84.9%
viability, T/C [14]: 96.4%
viability, T/C [15]: 84.2%
viability, T/C [16]: 86.4%
viability, T/C [31]: 66.8%
viability, T/C [32]: 28.5%
viability, T/C [17]: 85.5%
viability, T/C [18]: 89.3%
viability, T/C [19]: 89.5%
viability, T/C [20]: 79.3%
viability, T/C [33]: 73.1%
viability, T/C [34]: 32.6%
viability, T/C [21]: 104%
viability, T/C [22]: 83.5%
viability, T/C [23]: 94%
viability, T/C [24]: 77.5%
viability, T/C [35]: 71.4%
viability, T/C [36]: 39.9%
